These are literature values, as cited in patent US20040048919A1, “Compositions and methods for reduction of inflammatory symptoms and/or biomarkers in female subjects” (priority 2002, published 2004).

The conditions of the data set: 3.6 gm DHA per day (50x average dietary intake).

As to `CC/C=C\C/C=C\C/C=C\C/C=C\C/C=C\C/C=C\CCC(=O)O` [DHA, all-cis 4,7, 10, 13, 16, 19-docosahexaenoic acid], the “toxicities on ingestion by humans” value is given as “no apparent toxicities”.
